According to patent publication US9555058B2, “Antigen presenting cancer vaccine” (CALIFORNIA STEM CELL, INC., priority 2011, dated 2017):

Columns and labels:
Format in all cases: cell-based, human
[1] = system: melanoma cell lines; experiment: Apoptosis by flow cytometry using 7-AAD and annexin-V; settings: 1000 IU/mL IFN-gamma 72 hours with pan caspase inhibitor
Experimental: The methodology of the study was as follows. Autologous and model melanoma tumor cell lines were incubated with 1000 IU/mL of IFN-gamma for 72 hours prior to assaying for autophagy, apoptosis and MHC class II expression. Autophagy was detected by immunobloting with antibodies against LC3 II and by flow cytometry with Enzo's CytoID® Autophagy Detection Kit. Apoptosis and MHC class II induction were assayed by flow cytometry using 7-AAD and annexin-V staining and antibodies against MHC class II, respectively.
Analysis of tumor cell death and changes in major histocompatibility class II expression in response to IFN-gamma were conducted by use of antibodies directed against MHC class II, annexin-V and 7-amino-actinomycin D (7-AAD) and acquired on a Beckton-Dickenson FACS Calibur® flow cytometer.
What was investigated was the induction of autophagy, apoptosis and MHC class II molecules after IFN-gamma treatment of melanoma tumor cells in vitro. Autologous and model melanoma tumor cell lines were incubated with 1000 IU/mL of IFN-gamma for 72 hours prior to assaying for autophagy, apoptosis and […] class II expression. Autophagy was detected by immunobloting with antibodies against LC3 II and by flow cytometry with Enzo's CytoID Autophagy Detection Kit. […]

[2] = system: autologous melanoma tumor cells; experiment: Trypan-blue dye exclusion viability after IFN-gamma; settings: IFN-gamma 72 hours in complete medium; N=47; p=0.014 vs 89.1±6.8% not treated
Experimental: Pure tumor cells were generated according to Cornforth, et al. (Cornforth, et al. (2011) Cancer Immunol. Immunother. 60:123-131; Dillman, et al. (1993) J. Immunother. Emphasis Tumor Immunol. 14:65-69; Dillman, et al. (2000) Cancer Biother. Radiopharm. 15:161-168). The tumor cells were then incubated with 1,000 U/mL of interferon-gamma (InterMune, Brisbane, Calif.) for 72 h, irradiated with 100Gy from a cesium source and cryopreserved (Selvan, et al. (2007) Int. J. Cancer 122:1374-1383; Selvan, et al. (2010) Melanoma Res. 20:280-292). The IFN-gamma treated and irradiated tumor cells were recovered from cryopreservation, washed with phosphate buffered saline (PBS), and then added to the cultivated dendritic cells (DCs) and then incubated for about 24 h. The antigen-loaded DCs were harvested by gentle scraping with a rubber policeman and cryopreserved. Aliquots of IFN-gamma treated or untreated tumor cells and loaded DCs were obtained for flow cytometry evaluation and trypan-blue exclusion assay. […]

[3] = system: melanoma cell lines; experiment: Immunohistochemistry of a panel of melanoma associated antigens with or without IFN-gamma; settings: 1000 IU/mL IFN-gamma 72 hours, N=27 samples
Experimental: Expression of a panel antigens by melanoma lines were determined using immunocytochemical procedure. Cells were cultured in 8-chamber culture slides (Thermo Fisher, Rochester, N.Y.) in the presence or absence of 1000 IU/mL IFN-gamma. After 72 hours, the cells were washed 3 times with 1× Phosphate Buffered Saline (PBS) and fixed in cold acetone. After blocking endogenous peroxidase, cells were incubated with appropriate primary antibodies against the antigens listed. Immunohistochemistry was performed using biotinylated anitmouse or rabbit immunoglobulins, Super Sensitive enzyme-conjugated streptavidin labeling and horse radish peroxidase chromogen, and substrate kits (Biogenex, San Ramon, Calif.). The reactivity of the following anti-human polyclonal or monoclonal antibodies was investigated with isotype matched control antibody: S-100 and HMB-45 (Biogenex, San Ramon, Calif.), Mel-2, Mel-5, Mart-1 (Signet, Dedham, Mass.), Tyrosinase and Mage-1 (Thermo Scientific, Fremont, Calif.), Melan-A, HLA-class I and HLA-class II (Dako, Denmark).
Lysates from cells that were incubated in the presence or absence of IFN-gamma were subjected to immunoblotting for a variety of molecules that may be important mediators of immunity (FIG. 1B). In the setting of melanoma cells treated with IFN-gamma, heat shock proteins appear to be differentially regulated but remain largely present in the cell preparations, especially in the case of hsp-70.

[4] = system: MHC class II; experiment: Flow cytometry of MHC class II induction by IFN-gamma in autologous tumor cells; settings: 1000 IU/mL IFN-gamma 72 hours
Experimental: (§1) FIGS. 2A-D show characterization of IFN-gamma treated autologous tumor cells used for loading dendritic cells. Autologous melanoma tumor cells were treated with or without 1000 IU/mL IFN-gamma for 72 hours in 15% FBS/ECS in RPMI, harvested and irradiated with 100Gy and cryopreserved. Cells were then thawed in AIMV and a sample taken for flow cytometry and for preparation of cell lysates for immunoblotting prior to antigen loading of DCs. An example of four separate autologous melanoma cell lines is shown (FIG. 2A, FIG. 2B and FIG. 2C). Induction major histocompatibility complexes by IFN-gamma treatment of autologous tumor cells (FIG. 2D). Tumor cells were harvested after being treated with or without 1000 IU/mL IFN-gamma for 72 hours and then assayed for MHC class I and class II. Control isotype antibodies were used to identify positive populations. Dark data points indicate median mean fluorescent plus/minus 95% confidence interval. N=65. After irradiation, melanoma cells are checked by assays to ensure that there is not any mitosis.
Phenotypic characterization of the dendritic cell populations were performed using monoclonal antibodies against surface markers obtained from BD Pharmingen San Diego, Calif.: anti-MHC class II conjugated to PerCp, anti CD11c conjugated to APC, anti-CD80, anti-CD83, anti-CD86 conjugated to PE. Isotype controls were used to determine percent positive cells. […]

[5] = system: autologous melanoma cell lines; experiment: Immunoblotting of lysates of melanoma cells incubated with or without IFN-gamma; settings: 1000 IU/mL IFN-gamma 72 hours; four autologous melanoma cell lines
Experimental: as §1
Cytoplasmic cell lysates were prepared with Mammalian Protein Extraction Reagent (Thermo Scientific, Rockford, Ill.) plus protease inhibitor cocktail (Roche, Indianapolis, Ind.) at 10,000 cells/uL on ice. Approximately 25 uLs/lane of cell lysates were separated on 12.5% tris-glycine gels, transferred to PVDF membrane and probed with antibodies against the following: calreticulin (MBL, Woburn, Mass.), Hsp-60, Hsp-70, Hsp-90 (R&D Systems, Minneapolis, Minn.), HMBG-1 (Cell Signaling, Danvers, Mass.), ICAM-1 (Santa Cruz Biotech, Santa Cruz, Calif.), Mel-4, Mart-1 (Signet, Emeryville, Calif.), tyrosinase (Upstate, Lake Placid, N.Y.) and GADPH (Calbiochem, Darmstadt, Germany).
Lysates from cells that were incubated in the presence or absence of IFN-gamma were subjected to immunoblotting for a variety of molecules that may be important mediators of immunity (FIG. 1B). […]

[6] = system: SK-5-Mel cells; experiment: Autophagy by flow cytometry (Enzo CytoID Autophagy Detection), IFN-gamma with or without z-VAD; settings: 1000 IU/mL IFN-gamma 72 hours; 20 uM z-VAD where present; vs 5% FBS/RPMI
Experimental: FIGS. 6A and 6B reveal apoptosis and autophagy induced in response to interferon-gamma. SK-5-Mel cells were incubated with 1000 IU/mL of IFN-gamma for 72 hours after which non-adherent and adherent populations were collected and assayed for apoptosis and autophagy by flow cytometry using […] and Annexin-V (FIG. 6A). Enzo Cyto-ID Autophagy Detection Dye was used to measure autophagy by flow cytometry by measuring the mean intensity peak shift of dye provided by the manufacturer (FIG. 6B). Fold changes in the peak shift in comparison to 5% FBS/RPMI are shown in FIG. 6C with serum-free as positive control for the induction of autophagy.
SK-5-Mel cells were treated with 1000 IU/mL of IFN-gamma in the presence of 20 uM of the pan-caspase inhibitor z-VAD or its control compound, z-FA for 72 hours. The cells were harvested and assayed for autophagy by flow cytometry as in FIG. 6C.
The methodology of the study was as follows. […] Autophagy was detected by immunobloting with antibodies against LC3 II and by flow cytometry with Enzo's CytoID® Autophagy Detection Kit. […]
What was investigated was the induction of autophagy, apoptosis and MHC class II molecules after IFN-gamma treatment of melanoma tumor cells in vitro. […] Autophagy was detected by immunobloting with antibodies against LC3 II and by flow cytometry with Enzo's CytoID Autophagy Detection Kit. […]

| Substance | apoptosis in IFN-gamma treated cells [1] | viability (trypan-blue dye exclusion) [2] [%] | Change after IFN-gamma treatment: Down ([3]; antigen MAGE-1) [%] | Change after IFN-gamma treatment: None ([3]; antigen Mel-2) [%] | Change after IFN-gamma treatment: Down ([3]; antigen Tyrosinase) [%] | Change after IFN-gamma treatment: None ([3]; antigen Tyrosinase) [%] | cases with MHC class II induction greater than two fold [4] [%] | ICAM-1 expression (immunoblot) [5] | calreticulin and HMGB-1 expression (immunoblot) [5] | common melanoma antigens (mel-4, Mart-1 and tyrosinase) expression (immunoblot) [5] | autophagy, fold change of peak shift [6] [fold change] |
| --- | --- | --- | --- | --- | --- | --- | --- | --- | --- | --- | --- |
| carbobenzoxy-valyl-alanyl-aspartyl-[O-methyl]-fluoromethylketone [Z-VAD] | prevents apoptosis |  |  |  |  |  |  |  |  |  |  |
| interferon-gamma [IFN-gamma, interferon-gamma (InterMune, Brisbane, Calif.), type II interferon, used at 1000 IU/mL for 72 hours on melanoma cells] |  | 84.9±9.3 | 61.5 | 46.2 | 60.0 | 40.0 | 70 | significantly up-regulated | up-regulated in some cases | down regulated | 2.75±0.15 |
